We go through one molecule from patent US20060199819A1, “Inhibition of cyclooxygenase-2 activity” (Celgene Corporation, priority 2000, published 2006).

Experiment [1] deals with cyclooxygenase-2. Put plainly: LPS-mediated induction of cyclooxygenase-2 in macrophages (RAW 264.7 cells). The experiment is classed as cell-based. Conditions: macrophages in RAW 264.7 cells; as little as 50 μM. From the text: (§1) Cyclooxygenase-2, the rate-limiting enzyme in prostaglandin biosynthesis, is expressed in tumor associated macrophages. Because prostaglandins, notable PGE2, are important mediators of inflammatory response and angiogenesis, inhibition of their biosynthesis can be used to combat these effects. Inhibition of the cyclooxygenase-2 protein by a test compound can be conveniently observed in cells in which induction of the protein has been induced by lipopolysaccharide (LPS). Thus it is known that LPS enhances cyclooxygenase-2 transcription and this effect thus can be used as convenient model for evaluating cyclooxygenase-2 inhibition.
(§2) In one experiment, LPS-mediated induction of cyclooxygenase-2, as well as PGE2 biosynthesis, in macrophages in RAW 264.7 cells was blocked by as little as 50 μM of 3-phthalimido-2,6-dioxopiperidine. It appears, however, that LPS-enhanced cyclooxy-genase-2 transcription is not itself effected by the amide or imide. That is, the amide or imide has no effect on the induction of cyclooxygenase-2 by LPS. On the other hand, the amide or imide enhances the degradation of cyclooxygenase-2 messenger RNA. Consequently while not wishing to be bound by any theory, it appears the inhibitory effect of the amide or imide operates on the activity of cyclooxygenase-2 by some post-transcriptional mechanism.

Experiment [2] concerns PGE2 biosynthesis. Put plainly: LPS-mediated PGE2 biosynthesis in macrophages (RAW 264.7 cells). The class given is cell-based. The following applies: macrophages in RAW 264.7 cells, as little as 50 μM.
Text: as §1, §2

Molecules are shown by their SMILES.

Turning to `O=C1CCC(N2C(=O)c3ccccc3C2=O)C(=O)N1` (centres unmarked) [3-phthalimido-2,6-dioxopiperidine], the “LPS-mediated induction of cyclooxygenase-2” value in experiment [1] is “blocked”. For the same molecule, the PGE2 biosynthesis entry in experiment [2] is listed as “blocked”.
